Data as given in patent publication US20130217721A1, “COMPOSITIONS AND METHODS FOR DETECTION AND TREATMENT OF B-RAF INHIBITOR-RESISTANT MELANOMAS” (The Regents of the University of California, priority 2010, published 2013).
Where “and” joins values, the source holds several entries; their conditions need not be identical. Equal entries are not always repeated. Entries after “also recorded” stand apart in the source; their conditions may differ.

Key:
SKMEL-239 = assay: Cell cycle and apoptosis analysis; format: cell-based, human; settings: SKMEL-239 parental, 2 μM PLX4032
Experimental: Cell proliferation and cell cycle analysis. All melanoma cell lines were generated by A. Houghton (MSKCC) or obtained from ATCC. 293H cells were obtained from Invitrogen. Cells were maintained in DMEM (293H and MEFs), or RPMI (all other cell lines) supplemented with 2 mM glutamine, antibiotics and 10% fetal bovine serum. We confirmed by DNA fingerprinting^20 that all PLX4032-resistant, SKMEL-239 clones were derived from the same patient, thus excluding the possibility of contamination (Table 6). For proliferation assays, cells were plated in 6 well plates and 24 hours later were treated with varying concentrations of inhibitors as indicated. IC50 values were calculated using Graph Pad Prism v.5. For cell cycle and apoptosis studies, cells were seeded in 6 well dishes the day prior to drug treatment. For analysis, both adherent and floating cells were harvested and stained with ethidium bromide as described previously^21.

melanoma tumors = assay: Melanoma patients treated with vemurafenib (PLX4032): best response and PFS (Table 5); format: in vivo, human; settings: individual patient; patients 1-19 acquired resistance, 20-21 primary resistant
p61 BRAF(V600E) = p61 BRAF(V600E) (Homo sapiens, UniProt P15056, DEL169-380/V600E); assay: ERK signaling in cells ectopically expressing p61 BRAF(V600E); format: cell-based
Sequence of p61 BRAF(V600E) (P15056 with tags, fused parts or gaps DEL169-380/V600E): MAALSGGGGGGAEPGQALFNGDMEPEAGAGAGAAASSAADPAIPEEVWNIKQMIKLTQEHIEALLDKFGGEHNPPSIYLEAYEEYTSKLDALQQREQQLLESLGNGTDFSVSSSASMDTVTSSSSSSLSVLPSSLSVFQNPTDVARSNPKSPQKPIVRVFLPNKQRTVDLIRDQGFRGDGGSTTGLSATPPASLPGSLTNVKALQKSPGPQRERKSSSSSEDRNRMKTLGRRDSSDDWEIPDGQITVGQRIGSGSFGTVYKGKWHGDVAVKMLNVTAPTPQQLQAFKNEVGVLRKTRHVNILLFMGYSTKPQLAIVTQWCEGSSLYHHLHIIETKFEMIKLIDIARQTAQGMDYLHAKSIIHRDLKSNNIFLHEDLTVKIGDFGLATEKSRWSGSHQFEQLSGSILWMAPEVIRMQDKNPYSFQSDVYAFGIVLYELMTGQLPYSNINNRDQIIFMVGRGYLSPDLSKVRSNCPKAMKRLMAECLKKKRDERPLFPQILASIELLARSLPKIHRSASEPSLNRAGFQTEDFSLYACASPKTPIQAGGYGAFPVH
Text: FIGS. 6A-6E. […] FIG. 6A. PCR analysis of BRAF in cDNA from parental (P) and C3 cells. Primers were designed at the N-terminus and C-terminus of BRAF. […] Abbreviations: CR1: Conserved Region 1, CR2: Conserved Region 2, CR3: Conserved Region 3, RBD: RAS-binding domain, CRD: Cystine-Rich Domain, AS: Activation Segment, KD: Kinase Domain. FIG. 6B. Full length wild-type BRAF and the 1.7 kb/61 kd splice variant of BRAF(V600E) were cloned into a pcDNA3.1 vector with a FLAG tag at the C-terminus and expressed in 293H cells. The effect of PLX4032 (2 μM for 1 hour) on ERK signaling in the presence of p61 BRAF(V600E) was analyzed by western blot for pMEK and pERK. FIG. 6C. To compare levels of dimerization, 293H cells co-expressing FLAG tagged and V5-tagged p61 BRAF(V600E), full length BRAF(V600E) and the corresponding dimerization-deficient mutants p61 BRAF(V600E/R509H) and BRAF(V600E/R509H) were lysed followed by immunoprecipitation with FLAG antibody. Western blots with V5 or FLAG antibodies were performed as indicated. FIG. 6D. Comparison of MEK/ERK activation and sensitivity of ERK signaling to PLX4032 (2 μM for 1 hour) in 293H cells expressing either Flag-tagged BRAF(V600E) or the dimerization mutant Flag-tagged BRAF(V600E/R509H). FIG. 6E. Constructs expressing V5-tagged BRAF(V600E), p61 BRAF(V600E) or the dimerization mutant p61 BRAF(V600E/R509H) were transfected into 293H cells and treated with DMSO or 2 μM PLX4032 for 1 hour.
Plasmids/Trasfections. Flag-tagged BRAF constructs have been described previously^4. All other plasmids were created using standard cloning methods, with pcDNA3.1 (Invitrogen) as a vector. Mutations were introduced using the site-directed Mutagenesis Kit (Stratagene). For transfection studies, cells were seeded at 35 mm or 100 mm plates and transfected the following day using Lipofectamine 2000 (Invitrogen). Cells were collected 24 hours later for subsequent analysis.

[1] = test system: M249 R sub-line (M249 R4); assay: Cell survival / proliferation assay (72 h); format: cell-based, human; settings: M249 R sub-lines
Experimental: Cells were maintained in Dulbecco's modified Eagle medium (DMEM) with 10 or 20% fetal bovine serum and glutamine. shRNAs were sub-cloned into the lentiviral vector pLL3.7 and infections carried out with protamine sulphate. Stocks of PLX4032 (Plexxikon) and AZD6244 (commercially available) were made in DMSO. Cells were quantified using CellTiter-GLO Luminescence (Promega).
Cell proliferation experiments were performed in a 96-well format (five replicates), and baseline quantification performed at 24 h after cell seeding along with initiation of drug treatments (72 h). Stocks and dilutions of PLX4032 (Plexxikon), AZD6244 (Selleck Chemicals) and U0126 (Promega) were made in DMSO. siRNA pool (Dharmacon) transfections were carried out in 384-well format. TransIT transfection reagent (Mirus) was added to each well and incubated at 37° C. for 20 min. Subsequently, cells were reverse transfected, and the mixture was incubated for 51-61 h at 37° C. Cells were quantified using CellTiter 96 Aqueous One Solution (Promega) or CellTiter-GLO Luminescence (Promega) following the manufacturer's recommendations.
Cell culture, infections and drug treatments. Cells were maintained in DMEM with 10 or 20% fetal bovine serum and glutamine. shRNAs for B-RAF and C-RAF were sub-cloned into the lentiviral vector pLL3.7; pBabe B-RAF (V600E) was purchase (plasmid 17544, Addgene); viral supernatants generated by co-transfection with three packaging plasm ids into HEK293T cells; and infections carried out with protamine sulfate. Stocks and dilutions of PLX4032 (Plexxikon, Berkeley, Calif.) and AZD6244 (commercially available) were made in DMSO. Cells were quantified using CellTiter-GLO Luminescence (Promega) or crystal violet staining followed by NIH Image J quantification.

[2] = test system: ERK signaling (pMEK, pERK); assay: Western blot of ERK signaling (pMEK, pERK) in SKMEL-239 parental cells and resistant clones
Experimental: PLX4032 IC50 curves (at 5 days) for the SKMEL-239 parental cell line and five PLX4032-resistant clones. […] Western blot for components of the ERK and AKT signaling pathways in parental and resistant clones (2 μM PLX4032/24 hours). […] Dose-response of pMEK and pERK downregulation at 1 hour to increasing concentrations of PLX4032 in parental and two representative resistant clones (C3 and C5). […] Graphic representation of the chemiluminescent signal intensities from 5D and determination of IC50s for inhibition of MEK phosphorylation by PLX4032 in the parental and C3 and C5 clones.
Western blotting and receptor tyrosine kinase (RTK) arrays. […] The following antibodies were used: p217/p221-MEK (pMEK), p202/p204-ERK (pERK), MEK, ERK, (Cell Signaling), V5 tag (Invitrogen), BRAF, cyclin Flag tag, β-actin (Sigma). […] Membranes were exposed to chemiluminescent reagents and images captured using the ImageQuant LAS 4000 instrument (GE HealthCare).

melanoma = assay: PLX4032 clinical trial patients: best overall response and progression free survival (Table 2); format: in vivo, human; settings: individual PLX4032 clinical trial patient
B-RAF(V600E) kinase = B-RAF(V600E) kinase (Homo sapiens, UniProt P15056, V600E); assay: In vitro kinase assay of immunoprecipitated B-RAF; format: biochemical; settings: from resistant sub-lines and short-term cultures compared with parental cell lines; 1 μM PLX4032, 30 min at 30° C.
Sequence of B-RAF(V600E) kinase (P15056 whole entry V600E): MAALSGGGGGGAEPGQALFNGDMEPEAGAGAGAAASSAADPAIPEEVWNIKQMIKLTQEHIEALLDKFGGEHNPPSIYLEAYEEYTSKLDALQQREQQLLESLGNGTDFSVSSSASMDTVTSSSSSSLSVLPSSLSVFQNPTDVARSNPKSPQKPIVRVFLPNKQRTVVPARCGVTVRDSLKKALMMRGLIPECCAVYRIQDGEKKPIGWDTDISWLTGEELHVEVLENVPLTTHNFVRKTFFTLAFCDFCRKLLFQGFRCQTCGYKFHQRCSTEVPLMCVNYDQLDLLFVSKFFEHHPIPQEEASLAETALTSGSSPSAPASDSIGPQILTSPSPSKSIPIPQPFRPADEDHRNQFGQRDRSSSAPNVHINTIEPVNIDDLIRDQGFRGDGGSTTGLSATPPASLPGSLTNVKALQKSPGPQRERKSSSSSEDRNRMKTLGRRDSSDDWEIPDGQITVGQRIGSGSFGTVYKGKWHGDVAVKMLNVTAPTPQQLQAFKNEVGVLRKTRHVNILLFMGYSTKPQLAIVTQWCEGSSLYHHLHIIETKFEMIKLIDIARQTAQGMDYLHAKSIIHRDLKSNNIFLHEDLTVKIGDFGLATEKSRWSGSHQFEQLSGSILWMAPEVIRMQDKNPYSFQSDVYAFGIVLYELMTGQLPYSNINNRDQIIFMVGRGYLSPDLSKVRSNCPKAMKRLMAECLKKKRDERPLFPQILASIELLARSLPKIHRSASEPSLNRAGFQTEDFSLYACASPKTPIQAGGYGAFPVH
Text: Cells were harvested and protein lysates prepared in a NP40-based buffer before subjected to immunoprecipitation (IP). […] The beads were subsequently pelleted and the supernatant resuspended in sample buffer for western blotting to detect p-MEK and total MEK.

[3] = test system: M229, M238 and M249 parental cell lines; settings: B-RAF(V600E)-positive parental cell lines, in vitro and in vivo; cited from earlier work

Q: Which cell cycle effect (SKMEL-239) does the source give for CCCS(=O)(=O)Nc1ccc(F)c(C(=O)c2c[nH]c3ncc(-c4ccc(Cl)cc4)cc23)c1F [PLX4032] here?
A: The cell cycle effect was “accumulation of cells in G1”.

Q: And the cell death (SKMEL-239)?
A: The cell death was “significant induction of cell death”.

Q: What about the “Best Response” value (melanoma tumors) of the same compound?
A: Its value is −72% (2×) and −20% and −70% (2×) and −22% and −53% (2×) and −31% (2×) and −60% and −47% and −43% and −25% and −74% and −24% and −37% and −100% and −42% and +8%.

Q: What about the PFS (melanoma tumors) of the same compound?
A: The PFS was 464 days and 304 days and 104 days and 161 days and 137 days and 238 days and 212 days and 373 days and 148 days and 299 days and 107 days and 149 days and 126 days and 279 days and 118 days and 241 days and 168 days (2×) and 79 days and 50 days and 106 days.

Q: And the “sensitivity of ERK signaling (pMEK, pERK)” value (p61 BRAF(V600E); 293H cells, 2 μM PLX4032 for 1 hour)?
A: Its value is “resistant; also recorded: insensitive”.

Q: What about the “inhibition of ERK signaling” value (p61 BRAF(V600E); HT-29 (BRAF(V600E)) colorectal carcinoma cells expressing p61 BRAF(V600E)) of the same compound?
A: Its value is “failure of PLX4032 to effectively inhibit ERK signaling”.

Q: What about the “inhibition of ERK signaling” value (p61 BRAF(V600E); parental SKMEL-239 cells expressing p61 BRAF(V600E)) of the same compound?
A: The value was “failure of PLX4032 to effectively inhibit ERK signaling”.

Q: What about the GI50 ([1]; Homo sapiens, not reached up to 10 μM, read-out: GI50, concentration of drug that inhibits growth of cells by 50%) of the same compound?
A: Its GI50 is over 10 µM.

Q: And the “growth at low PLX4032 concentrations” value ([1]; in contrast to parental cells)?
A: The value was “paradoxically enhanced growth”.

Q: And the “sensitivity of ERK signaling to the drug” value ([2]; PLX4032-resistant SKMEL-239 clones)?
A: Its value is “decreased sensitivity”.

Q: And the “IC50 for pMEK inhibition relative to the parental cell line” value ([2]; SKMEL-239 C3 clone, 1 hour)?
A: Its value is “more than 100 fold”.

Q: What about the “pMEK IC50 relative to the parental cell line” value ([2]; SKMEL-239 C5 clone, 1 hour) of the same compound?
A: Its value is 4.5 fold.

Q: What about the “inhibition of ERK signaling” value ([2]; SKMEL-239 parental, 2 μM PLX4032) of the same compound?
A: The value was “effectively inhibits”.

Q: And the Best overall response (melanoma)?
A: The Best overall response was 83% and 14% and 37% and 53% (2×) and 73% and 84% and 32% and 42% and 24% and 57% and 75%.

Q: What about the “Progression free survival” value (melanoma) of the same compound?
A: Its value is 161 days and 113 days (2×) and 270 days and 106 days and 141 days and 149 days and 137 days and 126 days (2×) and 466 days and 84 days.

Q: And the “sensitivity of immunoprecipitated B-RAF kinase activities” value (B-RAF(V600E) kinase)?
A: The value was “similarly sensitive”.

Q: And the “sensitivity to PLX4032-mediated growth inhibition” value [3]?
A: Its value is “exquisitely sensitive”.
